Results as given in patent US5252718A, “Fibroblast growth factor antagonists” (The Salk Institute for Biological Studies, priority 1992, dated 1993).

Tests used:
[1] = Binding to [^3 H]-heparin; conditions: result in words
3T3 cells = experiment: [^3 H]-thymidine incorporation in serum-starved 3T3 cells challenged with bFGF; type: cell-based; conditions: 24 hours with peptide and bFGF challenge, then 5 hours label, result in words
Protocol: The synthesis of bFGF(97-120)-NH2 having the formula: H-Arg-Leu-Glu-Ser-Asn-Asn-Tyr-Asn-Thr-Tyr-Arg-Ser-Arg-Lys-Tyr-Ser-Ser-Trp- Tyr-Val-Ala-Lys-Arg-NH2 is conducted in a stepwise manner using a Beckman 990 synthesizer and an MBHA resin in the manner described in Example I. The peptide is judged to be substantially pure using TLC and HPLC. Testing is carried out using a culture of serum-starved 3T3 cells which are incubated for 24 hours with the bFGF peptide fragment and a challenge dose of bFGF and then incubated for 5 hours with radioactive [^3 H]-thymidine to determine whether the fragment will inhibit the incorporation of [^3 H]-DNA in the cell line which will be indicative of its inhibiting cell growth.

[2] = system: FGF receptors of BHK cells; conditions: result in words

Substance	binding of the peptide to heparin [1]	inhibition of bFGF-induced mitosis ([^3 H]-thymidine incorporation) (3T3 cells)	inhibition of bFGF binding to BHK cells (receptor) [2]
H-YRSRKYSSWY-NH2 [bFGF(106-115)-NH2, H-Tyr-Arg-Ser-Arg-Lys-Tyr-Ser-Ser-Trp-Tyr-NH2]	binds to heparin	very good inhibition	very strongly inhibits
H-SNNYNTYRSRKYSSWYVALKR-NH2 [bFGF(100-120)-NH2, H-Ser-Asn-Asn-Tyr-Asn-Thr-Tyr-Arg-Ser-Arg-Lys-Tyr-Ser-Ser-Trp-Tyr-Val-Ala- Leu-Lys-Arg-NH2]	binds itself to heparin	very good inhibition	very strongly inhibits
H-YRSRKYSSWYVALKR-NH2 [bFGF(106-120)-NH2, H-Tyr-Arg-Ser-Arg-Lys-Tyr-Ser-Ser-Trp-Tyr-Val-Ala-Leu-Lys-Arg-NH2]	binds to heparin	very good inhibition	very strongly inhibits
H-Arg-Leu-Glu-Ser-Asn-Asn-Tyr-Asn-Thr-Tyr-Arg-Ser-Arg-Lys-Tyr-Ser-Ser-Trp- Tyr-Val-Ala-Lys-Arg-NH2 (H-RLESNNYNTYRSRKYSSWYVAKR-NH2) [bFGF(97-120)-NH2]	binds itself to heparin	very good inhibition	very strongly inhibits
